Results reported in patent US20240398783A1, “Compounds and Pharmaceutical Compositions Comprising Inhibitors of Amyloid Peptide Interactions with Glycosaminoglycans, Methods of Treatment and Use Thereof” (Gismo Therapeutics, Inc., priority 2021, published 2024).
Structures can show the parent of a compound that is named as a salt. Where two headings read alike, the source gives them in different places.

Tests used:
[1] = target: TDP-43 binding to heparin (HS-GAG) (Homo sapiens, UniProt Q13148); test: Inhibition of TDP-43 binding to immobilized heparin-BSA (ELISA); parameters: species or system porcine; details: for IC50: TDP-43, heparin-BSA; for inhibition at 30 µM: read-out: TDP43/Heparin Activity (% inhibition class)
Sequence of TDP-43 binding to heparin (HS-GAG) (Q13148 whole entry): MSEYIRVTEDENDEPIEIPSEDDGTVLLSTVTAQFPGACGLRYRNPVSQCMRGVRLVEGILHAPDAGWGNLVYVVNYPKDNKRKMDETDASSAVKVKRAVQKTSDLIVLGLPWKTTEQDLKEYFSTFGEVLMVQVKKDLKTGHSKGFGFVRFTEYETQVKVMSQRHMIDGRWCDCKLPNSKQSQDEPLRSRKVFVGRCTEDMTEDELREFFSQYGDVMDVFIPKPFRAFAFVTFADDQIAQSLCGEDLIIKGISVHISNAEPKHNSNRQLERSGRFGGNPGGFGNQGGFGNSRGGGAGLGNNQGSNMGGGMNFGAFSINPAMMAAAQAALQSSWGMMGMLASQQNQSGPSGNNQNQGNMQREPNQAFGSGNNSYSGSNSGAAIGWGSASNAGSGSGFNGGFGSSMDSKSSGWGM
Method: (§1) Porcine intestinal mucosa heparin conjugated to Bovine Serum Albumin (Heparin-BSA) was prepared as described (Najjam, S. et al. 1997, Cytokine 12, 1013-1022). Heparin is a sulfated HS-GAG and is commonly used as a HS-GAG in biochemical and binding assays (Lindahl, U. and Kjellen, L. (2013) ibid). Heparin-BSA at 0.01 mg/ml in Phosphate Buffered Saline (PBS; pH 7.4) was added to a 96 well polystyrene ELISA plate (NUNC Cat. No. 449824; 100 μl per well) and incubated Over Night (ON) at 4 degrees Celsius. For negative controls, ELISA plates were coated with BSA instead of Heparin-BSA, using the same procedure. Following the incubation, the plate was washed consecutively, by immersion, with de-ionized water and PBS (pH 7.4). The ELISA plate was then blocked with nonfat milk (2%, 200 μl per well) for 2 hours at Room Temperature (RT) with gentle shaking. Following blocking, the plate was washed with de-ionized water then PBS (pH 7.4). GBAPs were dissolved and diluted in PBS (pH 6.5, supplemented with 0.1% BSA) at desired concentrations, added to the ELISA plates containing immobilized Heparin-BSA (100 μl per well) and incubated for 2 hours at RT with gentle shaking. Following incubation, the plate was washed with de-ionized water and three times with PBS (pH 6.5) plus Tween. Bound GBAP was detected by a monoclonal antibody specific for that GBAP, followed by incubation with secondary antibody conjugated to horseradish peroxidase (HRP). Antibody was diluted in PBS (pH 6.5 supplemented with 1% BSA). Following each incubation with antibody, the plate was washed with de-ionized water and three times with PBS (pH 6.5) wash buffer containing 0.1% Tween. The peroxidase substrate chromogen, TMB (Dako Cat. No. S1599) was added (100 μl per well) to the ELISA plate and incubated at room temperature. After 5 minutes ELISA Stop Solution (hydrochloric acid 1N, sulfuric acid 3N) was added (100 μl per well) to stop the peroxidase catalyzed colorimetric reaction. The Optical Density of the samples was measured at 450 nm using an ELISA plate reader (BioTek Synergy H1). Following color development, the % inhibition compared to control (BSA-coated plates) was determined. IC-50s were calculated using GraphPad Prism software.
The assay was performed as described in Example 43, with the following modifications.
Following to coating the plates with Heparin-BSA, plates were washed as described. The compounds were dissolved in DMSO at 10 mM final concentration and further diluted prior to assay. DMSO concentration in the screening well was up to 2%. Individual compounds were co-incubated with TDP-43 on plates containing immobilized heparin. TDP43 from R&D System (Cat. No. AP-190) was quickly frozen and kept in aliquots at −80 degrees Celsius. TDP-43 dissolved in PBS (pH 6.5, supplemented with BSA, 0.1%) was added to the ELISA plate (100 μl per well) and incubated for 2 hours at RT with gentle shaking. Following the incubation, the plate was washed with de-ionized water and three times with PBS (pH 6.5) plus Tween. Bound TDP-43 was detected by Anti-TDP43 Monoclonal Antibody (R&D System Cat. No. MAB7778), followed by secondary anti-IgG antibody conjugated to HRP (R&D System, Cat. No. HAF007). Following to color development with TMB, as described in Example 43, the Optical Density of the samples was measured at 450 nm using an ELISA plate reader. Following color development, the % inhibition compared to control (no compound, DMSO control) for every compound was determined.
As described in Example 43, Heparin in the form of Heparin-BSA conjugate is used as a source of HS-GAG. For each compound IC-50 value in TDP-43—heparin-BSA binding assay is shown in μM (micromolar). In some cases IC-50 was not measured and % inhibition at 30 μM compound concentration is shown instead. […] All assays were done on 96-well plates in duplicates and experiments were repeated at least twice. […]

[2] = target: T1, Amyloid-beta(1-42) oligomer binding to heparin (HS-GAG) (Homo sapiens, UniProt P05067); test: Inhibition of Amyloid-beta(1-42) oligomer binding to immobilized heparin-BSA (ELISA); parameters: species or system porcine; details: for IC50: co-incubation on heparin-BSA plates, read-out: Abeta42/Heparin Activity (IC-50); for inhibition at 30 µM: read-out: Abeta42/Heparin Activity (% inhibition class)
T1 construct: Beta-amyloid (1-42) was purchased from rPeptide (Cat. No. A1163); purchased rPeptide A1163
T1 sequence (P05067 672-713): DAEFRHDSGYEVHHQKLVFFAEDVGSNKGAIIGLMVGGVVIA
Method: as §1
The assay was performed as described in Example 43, with the following modifications. Following to coating the plates with Heparin-BSA, plates were washed as described. The compounds were dissolved in DMSO at 10 mM final concentration and further diluted prior to assay. DMSO concentration in the screening well was up to 2%. Individual compounds were co-incubated with Beta-amyloid peptides on plates containing immobilized heparin. Beta-amyloid (1-42) was purchased from rPeptide (Cat. No. A1163) and used to prepare oligomers according to Stine et al., 2003 (J Biol Chem. 278(13):11612-22) as follows. 1,1,1,3,3,3-Hexafluoro-2-propanol- (HFIP; Sigma Cat. No. 105228)-treated Beta amyloid (1-42) was dissolved in dry DMSO (Sigma Cat. No. D2650) to 5 mM concentration. Dissolved Beta amyloid (1-42) was then diluted to 100 μM in ice-cold cell culture medium (phenol red-free Ham's F-12; Caisson Labs, Cat. No. HFL05), followed immediately by vortexing for 30 seconds, and incubating at 4 degrees Celsius for 24 h. Resulting Beta amyloid (1-42) oligomers were centrifuged at 12,000 rpm for 10 min at 4 degree Celsius to remove aggregates. Oligomers were then quickly frozen and kept in aliquots at −80 degrees Celsius. Beta-amyloid (1-40) from rPeptide (Cat No. A1153) was dissolved in DMSO, quickly frozen and kept in aliquots at −80 degrees Celsius. Beta-amyloid (1-42) oligomers or Beta-amyloid (1-40) diluted in PBS (pH 6.5, supplemented with BSA, 0.1%) were added to the ELISA plate (100 μl per well) and incubated for 2 hours at RT with gentle shaking. Following the incubation, the plate was washed with de-ionized water and three times with PBS (pH 6.5) plus Tween. […]

[3] = read-out: TDP43/Heparin Activity (IC-50)
[4] = 30 μM compound, Abeta(1-42) oligomers, heparin-BSA

| Structure (SMILES) | IC50 ([2]; Abeta(1-42) oligomers) | IC50 ([1]; TDP43/Heparin Activity (IC-50)) | inhibition at 30 µM [1] | inhibition at 30 µM [2, 4] | other results |
| --- | --- | --- | --- | --- | --- |
| C/C(=N\Nc1ncnc2cc(F)ccc12)c1ccc(-n2cnc(C)c2C)nc1 [Compound 21, (E)-4-(2-(1-(6-(4,5-dimethyl-1H-imidazol-1-yl)pyridin-3-yl)ethylidene)hydrazineyl)-7-fluoroquinazoline] | 9.5 µM | – | – | – | IC50 [1, 3]: 4.6 µM |
| CC(=NNc1ccnc2cc(Cl)ccc12)c1ccc(-n2cnc(C)c2C)nc1 [Compound 22, 7-chloro-4-(2-(1-(6-(4,5-dimethyl-1H-imidazol-1-yl)pyridin-3-yl)ethylidene)hydrazineyl)quinoline] | – | 9.02 µM | – | – | inhibition at 30 µM [2]: > 30% |
| CC(=NNc1ccnc2cc(Cl)ccc12)c1ccc(-n2cc[n+](C)c2)nc1 [Compound 23, 1-(5-(1-(2-(7-chloroquinolin-4-yl)hydrazineylidene)ethyl)pyridin-2-yl)-3-methyl-1H-imidazol-3-ium iodide] | – | – | < 30% | < 30% | – |
| C/C(=N\Nc1nncc2cc(Cl)ccc12)c1ccc(-n2cc(C)nc2C)nc1 [Compound 24, (E)-6-chloro-1-(2-(1-(6-(2,4-dimethyl-1H-imidazol-1-yl)pyridin-3-yl)ethylidene)hydrazineyl)phthalazine] | 16.9 µM | – | – | – | IC50 [1, 3]: 0.89 µM |
| Cc1ncn(-c2ccc(Nc3ncnc4cc(Cl)ccc34)cn2)c1C [Compound 25, 7-chloro-N-(6-(4,5-dimethyl-1H-imidazol-1-yl)pyridin-3-yl)quinazolin-4-amine] | 9.9 µM | 2.45 µM | – | – | – |
| C/C(=N\Nc1ncnc2cc(F)ccc12)c1ccc(-n2cc[n+](C)c2)nc1 [Compound 26, (E)-1-(5-(1-(2-(7-fluoroquinazolin-4-yl)hydrazineylidene)ethyl)pyridin-2-yl)-3-methyl-1H-imidazol-3-ium phosphoric acid salt] | – | 32.8 µM | – | – | inhibition at 30 µM [2]: > 30% |
| C/C(=N\Nc1ncnc2cc(Cl)ccc12)c1ccc(-n2cc(C)nc2C)nc1 [Compound 27, (E)-7-chloro-4-(2-(1-(6-(2,4-dimethyl-1H-imidazol-1-yl)pyridin-3-yl)ethylidene)hydrazineyl)quinazoline hydrochloride] | – | – | – | – | IC50 [1, 3]: 2.18 µM; inhibition at 30 µM [2]: > 30% |
| CC(=NNc1ncnc2cc(Cl)ccc12)c1ccnc(-n2cnc(C)c2C)c1 [Compound 28, 7-chloro-4-(2-(1-(2-(4,5-dimethyl-1H-imidazol-1-yl)pyridin-4-yl)ethylidene)hydrazineyl)quinazoline] | 12.9 µM | – | – | – | IC50 [1, 3]: 5.73 µM |
| C/C(=N\Nc1ncnc2cc(Cl)ccc12)c1cccc(CN(C)C)c1 [Compound 29, 1-(3-(1-(2-(7-chloroquinazolin-4-yl)hydrazineylidene)ethyl)phenyl)—N,N-dimethylmethanamine] | – | – | < 30% | > 30% | – |
| C/C(=N\Nc1ncnc2cc(Cl)ccc12)c1cccc(N2CCN(C)CC2)c1 [Compound 30, 7-chloro-4-(2-(1-(3-(4-methylpiperazin-1-yl)phenyl)ethylidene)hydrazineyl)quinazoline] | – | 12.2 µM | – | – | inhibition at 30 µM [2]: > 30% |
| COc1cc(Nc2nncc3cc(Cl)ccc23)cnc1-n1cnc(C)c1C [Compound 31, 6-chloro-N-(6-(4,5-dimethyl-1H-imidazol-1-yl)-5-methoxypyridin-3-yl)phthalazin-1-amine phosphoric acid salt] | – | – | < 30% | < 30% | – |
| C/C(=N\Nc1ncnc2cc(Cl)ccc12)c1ccc(-n2cncn2)nc1 [Compound 32, (E)-4-(2-(1-(6-(1H-1,2,4-triazol-1-yl)pyridin-3-yl)ethylidene)hydrazineyl)-7-chloroquinazoline] | – | – | < 30% | < 30% | – |
| COc1cc(Nc2cncc3cc(Cl)ccc23)cnc1-n1cnc(C)c1C [Compound 33, 7-chloro-N-(6-(4,5-dimethyl-1H-imidazol-1-yl)-5-methoxypyridin-3-yl)isoquinolin-4-amine phosphoric acid salt] | – | – | < 30% | < 30% | – |
| Clc1ccc2c(Nc3ccc(-n4cncn4)nc3)ncnc2c1 [Compound 34, N-(6-(1H-1,2,4-triazol-1-yl)pyridin-3-yl)-7-chloroquinazolin-4-amine phosphoric acid salt] | 9.93 µM | 5.23 µM | – | – | – |
| Fc1cc(/C=N/Nc2ccnc3cc(Cl)ccc23)ccc1-n1ccnc1 [Compound 35, (E)-7-chloro-4-(2-(3-fluoro-4-(1H-imidazol-1-yl)benzylidene)hydrazineyl)quinoline hydrochloride] | 15.4 µM | 15.6 µM | – | – | – |
| CC(=NNc1ccnc2cc(Cl)ccc12)c1ccc(-n2ccnc2)cc1 [Compound 36, 4-(2-(1-(4-(1H-imidazol-1-yl)phenyl)ethylidene)hydrazineyl)-7-chloroquinoline phosphate] | 14.2 µM | 47.9 µM | – | – | – |
| Cc1cn(-c2ccc(Nc3cncc4cc(Cl)ccc34)cn2)c(C)n1 [Compound 37, 7-chloro-N-(6-(2,4-dimethyl-1H-imidazol-1-yl)pyridin-3-yl)isoquinolin-4-amine phosphoric acid salt] | – | – | < 30% | < 30% | – |
| Clc1ccc2c(N/N=C/c3ccc(-n4ccnc4)cc3)ccnc2c1 [Compound 38, 4-(2-(4-(1H-imidazol-1-yl)benzylidene)hydrazineyl)-7-chloroquinoline dihydrochloride] | 2.74 µM | 5.73 µM | – | – | – |
| CCN1CCN(c2ccc(Nc3ccnc4cc5ccccc5cc34)cc2)CC1 [Compound 39, N-(4-(4-ethylpiperazin-1-yl)phenyl)benzo[g]quinolin-4-amine] | – | – | > 30% | < 30% | – |
